Laboratory results from a melting point compilation (Tetko et al.; mined from patent text by program, amines drawn as free bases though some values may be those of a salt).

**Q.** For `COC(=O)Cc1cn(-c2ccccc2)nc1OCc1ccc(OCc2nc(-c3ccccc3)oc2C)cc1`, which melting point is on record?
**A.** 113 to 114 °C

**Q.** With `CC1(C)CCC(C)(C)c2cc(S(=O)(=O)c3ccc(C(=O)O)cc3)ccc21` as the compound, how does the melting point read?
**A.** 218 to 220 °C

**Q.** For `CC1NC(=O)NN=C1c1ccc2c(c1)C(C)(C)C(=O)N2` (stereo unspecified), which melting point is on record?
**A.** 292 °C

**Q.** For `CC1(C)COC(=O)N1c1nc(-c2ccc(C#N)cc2)cs1`, which melting point is on record?
**A.** 183 to 185 °C

**Q.** With `CS(=O)(=O)c1ccc(-c2cc(-c3c(-c4ccccn4)nc4ccccn34)ccn2)cc1` as the compound, how does the melting point read?
**A.** 242 to 244 °C

**Q.** Which melting point does the source give for `CCS(=O)(=O)OC(c1cccc(C(O)(C(F)(F)F)C(F)(F)F)c1)(C(F)(F)F)C(F)(F)F` here?
**A.** 64 °C

**Q.** Which melting point does the source give for `O=C(CP(=O)(O)O)NC12CC3CC(CC(C3)C1)C2` here?
**A.** 190 to 194 °C

**Q.** Which melting point does the source give for `CCCCCCCNC(=O)Nc1ccccc1C(=O)NCCn1cnc(-c2ccccc2)c1-c1ccccc1` here?
**A.** 170 °C

**Q.** Which melting point does the source give for `CC(C)(C)[Si](C)(C)Oc1cc(Br)c2oc(-c3ccc(O[Si](C)(C)C(C)(C)C)c(F)c3)nc2c1` here?
**A.** 98 to 99 °C

**Q.** With `N=C(N)c1cccc(Cc2c[nH]cn2)c1O` as the compound, how does the melting point read?
**A.** 249 °C

**Q.** With `O=C(Cc1ccc(Cl)cc1)c1ccc(Cl)cc1Cl` as the compound, how does the melting point read?
**A.** 65 to 66 °C

**Q.** For `Cc1cc(C)n(-c2nc(Nc3ccc(C(F)(F)F)cc3)c3ccccc3n2)n1`, which melting point is on record?
**A.** 219 to 220 °C

**Q.** For `CCCCN1CC(=O)N2[C@@H](c3ccc(NS(C)(=O)=O)cc3)c3[nH]c4ccccc4c3C[C@@H]2C1=O` (relative stereo), which melting point is on record?
**A.** 188 °C

**Q.** With `Cc1ccc2cccc(N(Cc3c(Cl)ccc([N+](=O)[O-])c3Cl)C(=O)OC(C)(C)C)c2n1` as the compound, how does the melting point read?
**A.** 130 to 131 °C

**Q.** For `CCCCc1nc(=O)n2nc(-c3ccccc3)cc2[nH]1`, which melting point is on record?
**A.** 234 °C

**Q.** For `O=C(O)CC(NC(=O)C1CCCN2C(=O)CCC(NC(=O)c3ccccc3)C(=O)N12)C(=O)COC(=O)c1c(Cl)cccc1Cl` (stereo unspecified), which melting point is on record?
**A.** 126 to 130 °C

**Q.** Which melting point does the source give for `CC1(C)Oc2cc(N)c([N+](=O)[O-])cc2[C@@H](N2CCCC2=O)[C@@H]1O` (relative stereo) here?
**A.** 310 to 313 °C

**Q.** For `C=CC(=O)NC1=NN(c2c(Cl)cc(Cl)cc2Cl)C(=O)C1c1cc[nH]n1` (stereo unspecified), which melting point is on record?
**A.** 151 to 154 °C

**Q.** With `CN(C)C(=S)SCn1c(Br)c(Br)c(S(=O)(=O)C(F)(F)F)c1-c1ccc(Cl)cc1` as the compound, how does the melting point read?
**A.** 185 to 187 °C

**Q.** Which melting point does the source give for `Cc1oc(-c2ccccc2)nc1COc1ccc(COc2cncc(CC(=O)O)c2)cc1` here?
**A.** 139 to 140 °C

**Q.** With `O=S(=O)(c1ccccc1)N1CCC(Nc2nc(OCC(F)(F)F)nc(-n3ccnc3)n2)CC1` as the compound, how does the melting point read?
**A.** 201 to 203 °C

**Q.** With `CN(C(=O)OC(C)(C)C)c1cccc(-c2nc(=O)c3ccccc3s2)n1` as the compound, how does the melting point read?
**A.** 196 °C

**Q.** With `CCCOc1ccccc1-c1nc2nc(NCC(C)O)ncc2c(=O)[nH]1` (stereo unspecified) as the compound, how does the melting point read?
**A.** 212 to 214 °C

**Q.** Which melting point does the source give for `CN(C)c1nc2ccccc2n2cnnc12` here?
**A.** 184 to 186 °C

**Q.** For `O=C(c1cc2cc(OCCNC[C@H](O)COc3ccccc3)ccc2o1)N1CCCC1`, which melting point is on record?
**A.** 117 to 118 °C

**Q.** Which melting point does the source give for `Cc1ccc(-c2c(Cl)nc(C#N)n2O)cc1` here?
**A.** 212 to 215 °C

**Q.** Which melting point does the source give for `Cc1cc2c(cc1C)C(C(=O)O)SCC2=O` (single isomer, unassigned; (-)) here?
**A.** 177 to 178 °C

**Q.** For `O=C(CC(CSc1nc2ccccc2s1)C(=O)NC1CCCCC1)NC1CCCCC1` (stereo unspecified), which melting point is on record?
**A.** 147 to 149 °C

**Q.** With `CC1(C)CC(=C(c2ccc(F)cc2)c2ccc(OCC#N)cc2)CC(C)(C)C1` as the compound, how does the melting point read?
**A.** 100 to 101 °C

**Q.** Which melting point does the source give for `N#Cc1cccc2c1CCC2=O` here?
**A.** 122 °C

**Q.** Which melting point does the source give for `O=C(Nc1ccccc1)OC1CCN(C(=O)c2ccc(F)cc2)C1` (stereo unspecified) here?
**A.** 173 to 175 °C

**Q.** For `CCCN1CC=C(c2c(C)[nH]c3cc(OC)ccc23)CC1`, which melting point is on record?
**A.** 90 to 95 °C

**Q.** With `CCN(CC)c1ccc2nc3c4ccc(Br)cc4c(=Nc4ccncc4)cc-3oc2c1` as the compound, how does the melting point read?
**A.** 269 to 271 °C

**Q.** Which melting point does the source give for `COc1ccc(C)cc1NC(=O)Nc1ccc(N2CCN(C(=O)Nc3cc(OCC(O)CO)ccc3Cl)CC2)cc1` (stereo unspecified) here?
**A.** 114 to 118 °C

**Q.** With `Oc1cc2cc3c(ccc4cc(O)c(O)cc43)nc2cc1O` as the compound, how does the melting point read?
**A.** > 270 °C

**Q.** With `FC(F)(F)c1cccc(N=C2SCCN2C(=S)Nc2cccc(C(F)(F)F)c2)c1` as the compound, how does the melting point read?
**A.** 116 to 117 °C
